Blank lines part the entries; values can stand above or below the molecule they belong to.
Key:
sGC α1/β1 heterodimer = sGC α1/β1 heterodimer (Homo sapiens (Human), UniProt Q02108+Q02153); assay: Cell-based sGC functional assay (CASA assay), cGMP by HTRF; settings: CHO-K1/sGC cells; for Emax: CHO-K1, cGMP production as percentage of maximum of compound A (set to 100%), read-out: % Activation; for EC50: inflection point of cGMP production, 4P fit, read-out: IP
Summary of the method: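 cGMP made in CHO-K1/sGC (human α1/β1) cells is read by HTRF after compound treatment for 1 hr at 37° C, following 30 min at 25° C with or without 1 μM DETA-NO; IBMX 0.5 mM present. Values are % of standard compound maximum; 4P fit.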

[1] = biological target: human recombinant sGC enzyme (Homo sapiens (Human), UniProt Q02108+Q02153); assay: SEC competition binding assay with [3H] Compound B radioligand; settings: displacement of 1.6 nM [3H] Compound B, 24 h at 37° C.
Summary of the method: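 Competition format: [3H] Compound B (1.6 nM) displaced from human recombinant sGC over 24 h at 37° C. in triethanolamine pH 7.4 buffer with MgCl2, BSA, DTT, 300 μM DETA/NO and 400 μM GTP (1% DMSO). Gel-filtration eluates counted by liquid scintillation; 1 μM Compound B defined non-specific binding; Ki by one-site fit.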

SMILES: CC1(c2ccc(F)c(O)c2)C(=O)Nc2nc(-c3cn4ccnc4c(CCC(F)(F)C(F)(F)F)n3)nc(N3CC(O)(C(F)(F)F)C3)c21 (stereo not drawn) [Example 129-B, 5-(4-Fluoro-3-hydroxyphenyl)-4-(3-hydroxy-3-(trifluoromethyl)azetidin-1-yl)-5-methyl-2-(8-(3,3,4,4,4-pentafluorobutyl)imidazo[1,2-a]pyrazin-6-yl)-5,7-dihydro-6H-pyrrolo[2,3-d]pyrimidin-6-one]
Emax (sGC α1/β1 heterodimer): 84%
EC50 (sGC α1/β1 heterodimer): 1890 nM
Ki [1]: 2 nM

SMILES: Cc1cccc(Cc2nc(-c3nc(N)c4c(n3)NC(=O)C4(C)c3ccc(O)c(F)c3)cn3ccnc23)c1 (stereo not drawn) [Example 127-B, 4-Amino-5-(3-fluoro-4-hydroxyphenyl)-5-methyl-2-{8-[(3-methylphenyl)-methyl]imidazo[1,2-a]-pyrazin-6-yl}-5,7-dihydro-6H-pyrrolo[2,3-d]-pyrimidin-6-one]
Emax (sGC α1/β1 heterodimer): 118%
EC50 (sGC α1/β1 heterodimer): 9980 nM
Ki [1]: 9.72 nM

SMILES: CC1(c2cc(O)c(Cl)c(F)c2)C(=O)Nc2nc(-c3cn4ccnc4c(Cc4cc(F)cc(F)c4F)n3)nc(N)c21 (stereo not drawn) [Example 7-B, 4-Amino-5-(4-chloro-3-fluoro-5-hydroxyphenyl)-5-methyl-2-{8-[(2,3,5-trifluorophenyl)methyl]imidazo[1,2-a]pyrazin-6-yl}-5,7-dihydro-6H-pyrrolo[2,3-d]pyrimidin-6-one]
Emax (sGC α1/β1 heterodimer): 102%
EC50 (sGC α1/β1 heterodimer): 217 nM
Ki [1]: 0.098 nM

SMILES: Cc1cc(C2(C)C(=O)Nc3nc(-c4cn5ccnc5c(Cc5cccc(F)c5)n4)nc(N)c32)ccc1O (stereo not drawn) [Example 45-A, 4-Amino-2-{8-[(3-fluorophenyl)methyl]imidazo[1,2-a]pyrazin-6-yl}-5-(4-hydroxy-3-methylphenyl)-5-methyl-5,7-dihydro-6H-pyrrolo[2,3-d]pyrimidin-6-one]
Emax (sGC α1/β1 heterodimer): 120%
EC50 (sGC α1/β1 heterodimer): 1570 nM
Ki [1]: 0.565 nM

SMILES: CC1(c2ccc(Cl)c(O)c2Cl)C(=O)Nc2nc(-c3cn4ccnc4c(CC4CCCCC4)n3)nc(N)c21 (stereo not drawn) [Example 69-A, 4-Amino-2-(8-(cyclohexylmethyl)imidazo[1,2-a]pyrazin-6-yl)-5-(2,4-dichloro-3-hydroxyphenyl)-5-methyl-5,7-dihydro-6H-pyrrolo[2,3-d]pyrimidin-6-one]
Emax (sGC α1/β1 heterodimer): 108%
EC50 (sGC α1/β1 heterodimer): 1380 nM
Ki [1]: 3.47 nM

SMILES: CC1(c2cccc(O)c2)C(=O)Nc2nc(-c3cn4ccnc4c(Cc4cccc(F)c4)n3)nc(N)c21 (stereo not drawn) [Example 121-B, 4-Amino-2-{8-[(3-fluorophenyl)methyl]imidazo[1,2-a]pyrazin-6-yl}-5-(3-hydroxyphenyl)-5-methyl-5,7-dihydro-6H-pyrrolo[2,3-d]pyrimidin-6-one]
Emax (sGC α1/β1 heterodimer): 120%
EC50 (sGC α1/β1 heterodimer): 369 nM
Ki [1]: 0.382 nM

SMILES: CC1(c2cccc(O)c2)C(=O)Nc2nc(-c3cn4ccnc4c(Cc4ccc(F)cc4)n3)nc(N3CCC(F)(F)CC3)c21 (stereo not drawn) [Example 135-B, 4-(4,4-Difluoropiperidin-1-yl)-2-{8-[(4-fluoro-phenyl)methyl]imidazo-[1,2-a]-pyrazin-6-yl}-5-(3-hydroxyphenyl)-5-methyl-5,7-dihydro-6H-pyrrolo[2,3-d]pyrimidin-6-one]
Emax (sGC α1/β1 heterodimer): 103%
EC50 (sGC α1/β1 heterodimer): 966 nM
Ki [1]: 4.01 nM

SMILES: CC(C)CCc1nc(-c2nc(N)c3c(n2)NC(=O)C3(C)c2cc(O)c(Cl)c(F)c2)cn2ccnc12 (stereo not drawn) [Example 32-B, 4-Amino-5-(4-chloro-3-fluoro-5-hydroxyphenyl)-2-(8-isopentylimidazo[1,2-a]pyrazin-6-yl)-5-methyl-5,7-dihydro-6H-pyrrolo[2,3-d]pyrimidin-6-one]
Emax (sGC α1/β1 heterodimer): 107%
EC50 (sGC α1/β1 heterodimer): 648 nM
Ki [1]: 0.306 nM

SMILES: CC1(c2ncc(Cl)c(O)c2Cl)C(=O)Nc2nc(-c3cn4ccnc4c(Cc4cc(F)cc(F)c4)n3)nc(N)c21 (stereo not drawn) [Example 73-A, 4-Amino-5-(3,5-dichloro-4-hydroxypyridin-2-yl)-2-{8-[(3,5-difluorophenyl)methyl]imidazo[1,2-a]pyrazin-6-yl}-5-methyl-5,7-dihydro-6H-pyrrolo[2,3-d]pyrimidin-6-one]
Emax (sGC α1/β1 heterodimer): 81%
EC50 (sGC α1/β1 heterodimer): 694 nM
Ki [1]: 6.01 nM

SMILES: Cc1cn2cc(-c3nc(N)c4c(n3)NC(=O)C4(C)c3ccc(Cl)c(O)c3)nc(Cc3ccccc3F)c2n1 (stereo not drawn) [Example 100-A, 4-Amino-5-(4-chloro-3-hydroxyphenyl)-2-{8-[(2-fluorophenyl)methyl]-2-methylimidazo[1,2-a]pyrazin-6-yl}-5-methyl-5,7-dihydro-6H-pyrrolo[2,3-d]pyrimidin-6-one]
Emax (sGC α1/β1 heterodimer): 106%
EC50 (sGC α1/β1 heterodimer): 652 nM
Ki [1]: 0.544 nM

SMILES: CC1CCC(Cc2nc(-c3nc(N)c4c(n3)NC(=O)C4(C)c3ccc(Cl)c(O)c3)cn3ccnc23)CC1 (stereo not drawn) [Example 108-AA, 4-Amino-5-(4-chloro-3-hydroxyphenyl)-5-methyl-2-{8-[(4-methylcyclo-hexyl)methyl]imidazo-[1,2-a]pyrazin-6-yl}-5,7-dihydro-6H-pyrrolo-[2,3-d]pyrimidin-6-one]
Emax (sGC α1/β1 heterodimer): 118%
EC50 (sGC α1/β1 heterodimer): 198 nM
Ki [1]: 0.924 nM

SMILES: CC1(c2cccc(O)c2)C(=O)Nc2nc(-c3cn4ccnc4c(CCC4CCCCC4)n3)nc(N)c21 (stereo not drawn) [Example 83-B, 4-Amino-2-(8-(2-cyclohexylethyl)imidazo[1,2-a]pyrazin-6-yl)-5-(3-hydroxyphenyl)-5-methyl-5,7-dihydro-6H-pyrrolo[2,3-d]pyrimidin-6-one]
Emax (sGC α1/β1 heterodimer): 109%
EC50 (sGC α1/β1 heterodimer): 222 nM
Ki [1]: 5.12 nM

SMILES: CC1(c2ccc(O)c(F)c2)C(=O)Nc2nc(-c3cn4ccnc4c(Cc4cccc(F)c4)n3)nc(N)c21 (stereo not drawn) [Example 125-B, 4-Amino-5-(3-fluoro-4-hydroxyphenyl)-2-{8-[(3-fluorophenyl)methyl]-imidazo[1,2-a]pyrazin-6-yl}-5-methyl-5,7-dihydro-6H-pyrrolo[2,3-d]-pyrimidin-6-one]
Emax (sGC α1/β1 heterodimer): 164%
EC50 (sGC α1/β1 heterodimer): 601 nM
Ki [1]: 0.508 nM

These reach a lower EC50 (sGC α1/β1 heterodimer). Values come first.

Emax (sGC α1/β1 heterodimer): 91%
EC50 (sGC α1/β1 heterodimer): 125 nM
Ki [1]: 2.9 nM
SMILES: CC1(c2cc(Cl)c(O)c(Cl)c2)C(=O)Nc2nc(-c3cn4ccnc4c(CC4CCCCC4)n3)nc(N)c21 (stereo not drawn) [Example 113-A, 4-Amino-2-(8-(cyclo-hexylmethyl)imidazo-[1,2-a]pyrazin-6-yl)-5-(3,5-dichloro-4-hydroxy-phenyl)-5-methyl-5,7-dihydro-6H-pyrrolo-[2,3-d]-pyrimidin-6-one]

Emax (sGC α1/β1 heterodimer): 105%
EC50 (sGC α1/β1 heterodimer): 121 nM
Ki [1]: 2.08 nM
SMILES: CCCCc1nc(-c2nc(N)c3c(n2)NC(=O)C3(C)c2ccc(C(F)(F)F)c(O)c2)cn2ncnc12 (stereo not drawn) [Example 61-B, 4-Amino-2-(8-butyl-[1,2,4]triazolo[1,5-a]pyrazin-6-yl)-5-(3-hydroxy-4-(trifluoromethyl)phenyl)-5-methyl-5,7-dihydro-6H-pyrrolo[2,3-d]pyrimidin-6-one]

Emax (sGC α1/β1 heterodimer): 137%
EC50 (sGC α1/β1 heterodimer): 95 nM
Ki [1]: 6.37 nM
SMILES: CC1(c2ccc(O)c(F)c2)C(=O)Nc2nc(-c3cn4ncnc4c(CCC(F)(F)C(F)(F)F)n3)nc(N)c21 (racemic) [Example 116-B, 4-Amino-5-(3-fluoro-4-hydroxyphenyl)-5-methyl-2-(8-(3,3,4,4,4-pentafluorobutyl)-[1,2,4]triazolo[1,5-a]pyrazin-6-yl)-5,7-dihydro-6H-pyrrolo-[2,3-d]pyrimidin-6-one]

Emax (sGC α1/β1 heterodimer): 152%
EC50 (sGC α1/β1 heterodimer): 78 nM
Ki [1]: 0.17 nM
SMILES: CC1(c2ccc(Cl)c(O)c2)C(=O)Nc2nc(-c3cn4ccnc4c(Cc4cc(F)ccc4F)n3)nc(N)c21 (stereo not drawn) [Example 19-A, 4-Amino-5-(4-chloro-3-hydroxyphenyl)-2-{8-[(2,5-difluorophenyl)methyl]imidazo[1,2-a]pyrazin-6-yl}-5-methyl-5,7-dihydro-6H-pyrrolo[2,3-d]pyrimidin-6-one]

Emax (sGC α1/β1 heterodimer): 128%
EC50 (sGC α1/β1 heterodimer): 74 nM
Ki [1]: 0.214 nM
SMILES: CC1(c2ccc(F)c(O)c2)C(=O)Nc2nc(-c3cn4ccnc4c(Cc4ccc(F)cc4F)n3)nc(N)c21 (stereo not drawn) [Example 22-B, 4-Amino-2-{8-[(2,4-difluorophenyl)methyl]imidazo[1,2-a]pyrazin-6-yl}-5-(4-fluoro-3-hydroxyphenyl)-5-methyl-5,7-dihydro-6H-pyrrolo[2,3-d]pyrimidin-6-one]

Emax (sGC α1/β1 heterodimer): 132%
EC50 (sGC α1/β1 heterodimer): 25 nM
Ki [1]: 0.128 nM
SMILES: CC1(c2cc(O)c(Cl)c(F)c2)C(=O)Nc2nc(-c3cn4ncnc4c(Cc4ccccc4F)n3)nc(N)c21 (stereo not drawn) [Example 10-B, 4-Amino-5-(4-chloro-3-fluoro-5-hydroxyphenyl)-2-{8-[(2-fluorophenyl)methyl]-[1,2,4]triazolo[1,5-a]pyrazin-6-yl}-5-methyl-5,7-dihydro-6H-pyrrolo[2,3-d]pyrimidin-6-one]
